The numbers were not newly measured in patent US20030158158A1, “Oct preparations” (priority 2000, published 2003), which cites them from elsewhere.

Experiment in data set [1]: not given
This is another data set of the same source.

Experiment in data set [2]: not given
The source holds these as a separate data set.

On to `C=C1/C(=C\C=C2/CCC[C@]3(C)[C@@H]([C@H](C)OCCC(C)(C)O)CC[C@@H]23)C[C@@H](O)C[C@@H]1O` [OCT, 1α,25-dihydroxy-22-oxavitamin D3], for which the “in vivo calcium elevating effect” value was “low”. Besides, the “in vitro differentiation-inducing activity” value in data set [1] is listed as “strong”. For the same molecule, the “decomposition in aqueous solutions” value in data set [2] was “rapidly decompose”.
